Reference: patent US9920075B2, “Triazolopyridine and triazolopyrimidine inhibitors of myeloperoxidase” (BRISTOL-MYERS SQUIBB COMPANY, priority 2014, dated 2018)
Several values for one entry are separate records, joined by “and”; a condition that tells them apart may be missing. Equal entries are not always repeated.

What follows are compounds tested against T1, myeloperoxidase (MPO) (Homo sapiens, UniProt P05164) (assay: MPO peroxidation assay (Amplex Red assay)). Details: MPO peroxidation (Amplex Red), ranges given; read-out: MPO peroxidation assay IC50 values (binned).
T1 sequence (P05164 49-745): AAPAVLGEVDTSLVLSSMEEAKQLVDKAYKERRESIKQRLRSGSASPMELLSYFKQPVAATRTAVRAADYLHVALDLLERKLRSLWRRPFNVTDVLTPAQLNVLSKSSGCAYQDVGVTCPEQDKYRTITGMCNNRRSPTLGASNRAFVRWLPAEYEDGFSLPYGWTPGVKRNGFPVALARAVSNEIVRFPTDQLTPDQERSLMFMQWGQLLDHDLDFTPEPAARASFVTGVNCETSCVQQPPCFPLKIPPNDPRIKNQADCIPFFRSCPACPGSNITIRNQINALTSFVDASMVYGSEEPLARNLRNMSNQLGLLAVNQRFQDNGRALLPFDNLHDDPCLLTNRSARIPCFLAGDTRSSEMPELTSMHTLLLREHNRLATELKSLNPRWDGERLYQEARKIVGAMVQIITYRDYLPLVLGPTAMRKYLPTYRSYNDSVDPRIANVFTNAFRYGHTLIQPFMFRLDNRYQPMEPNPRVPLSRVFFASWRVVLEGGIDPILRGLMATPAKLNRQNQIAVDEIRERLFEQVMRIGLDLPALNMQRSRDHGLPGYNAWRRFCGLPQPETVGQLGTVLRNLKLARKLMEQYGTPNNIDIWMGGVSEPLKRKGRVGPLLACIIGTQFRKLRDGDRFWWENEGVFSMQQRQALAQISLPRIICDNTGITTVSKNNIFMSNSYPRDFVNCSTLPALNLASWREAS
Assay type: biochemical
Description: MPO Peroxidation Assay (Amplex Red Assay)
MPO peroxidation activity was measured in 100 mM KPi (pH 7.4) by utilizing the non-fluorescent reagent Amplex Red (Invitrogen Cat. #A12222) which can be oxidized to the highly fluorescent resorufin. Amplex Red is oxidized by the peroxidase action of MPO to resorufin. […] Enzyme and compound were preincubated for ten minutes at room temperature.
After the ten minute preincubation, 25 μL of an Amplex Red mixture containing 200 μM Amplex Red and 10 mM H2O2 was added to the plate.
IC50 values were calculated by determining the slope of the linear portion of the kinetic trace (180-540 secs), and using that calculated slope to determine % inhibition occurring at each concentration of inhibitor using the following equation:
[formula] where A=minimal Y value (activity level of inhibited sample), B=maximal Y value (activity level of uninhibited sample), C=Log IC50, D=Hill Slope, x=concentration of inhibitor. MPO Chlorination Assay (APF Assay)

SMILES	IC50
Cc1nn(-c2ccc(Br)cc2)nc1COc1cc(N)nc2[nH]nnc12 [Example 58, 7-((2-(4-Bromophenyl)-5-methyl-2H-1,2,3-triazol-4-yl)methoxy)-3H-[1,2,3]triazolo[4,5-b]pyridin-5-amine]	150 to 1000 nM
Cc1nn(-c2ccc(N3CCNCC3)cc2)nc1COc1cc(N)nc2[nH]nnc12 [Example 63, 7-((5-Methyl-2-(4-(piperazin-1-yl)phenyl)-2H-1,2,3-triazol-4-yl)methoxy)-3H-[1,2,3]triazolo[4,5-b]pyridin-5-amine]	60 to 150 nM
N#Cc1nn(-c2ccccc2)nc1COc1cc(N)nc2[nH]nnc12 [Example 65, 5-(((5-Amino-3H-[1,2,3]triazolo[4,5-b]pyridin-7-yl)oxy)methyl)-2-phenyl-2H-1,2,3-triazole-4-carbonitrile]	≤ 60 nM
Cc1nn(Cc2ccccc2)nc1COc1cc(N)nc2[nH]nnc12 [Example 66, 7-((2-Benzyl-5-methyl-2H-1,2,3-triazol-4-yl)methoxy)-3H-[1,2,3]triazolo [4,5-b]pyridin-5-amine]	≤ 60 nM
Cc1nn(C2CCNCC2)nc1COc1cc(N)nc2[nH]nnc12 [Example 68, 7-((5-Methyl-2-(piperidin-4-yl)-2H-1,2,3-triazol-4-yl)methoxy)-3H-[1,2,3]triazolo[4,5-b]pyridin-5-amine]	60 to 150 nM
Cc1nn(CC2CCNC2)nc1COc1cc(N)nc2[nH]nnc12 (centres unmarked) [Example 69, 7-((5-Methyl-2-(pyrrolidin-3-ylmethyl)-2H-1,2,3-triazol-4-yl)methoxy)-3H-[1,2,3]triazolo[4,5-b]pyridin-5-amine]	150 to 1000 nM
Cc1nn(Cc2c[nH]cn2)nc1COc1cc(N)nc2[nH]nnc12 [Example 71, 7-((2-((1H-Imidazol-4-yl)methyl)-5-methyl-2H-1,2,3-triazol-4-yl)methoxy)-3H-[1,2,3]triazolo[4,5-b]pyridin-5-amine]	60 to 150 nM and 150 to 1000 nM
Cc1nn(C[C@@H]2C[C@H](Oc3ccccc3)CN2)nc1COc1cc(N)nc2[nH]nnc12 [Example 73, 7-((5-Methyl-2-(((2S,4S)-4-phenoxypyrrolidin-2-yl)methyl)-2H-1,2,3-triazol-4-yl)methoxy)-3H-[1,2,3]triazolo[4,5-b]pyridin-5-amine]	≤ 60 nM
Cc1nn(Cc2cccc(C3CCNCC3)c2)nc1COc1cc(N)nc2[nH]nnc12 [Example 78, 7-((5-Methyl-2-(3-(piperidin-4-yl)benzyl)-2H-1,2,3-triazol-4-yl)methoxy)-3H-[1,2,3]triazolo[4,5-b]pyridin-5-amine]	≤ 60 nM
COc1ncc(Br)cc1COc1cc(N)nc2[nH]nnc12 [Example 81, 7-((5-Bromo-2-methoxypyridin-3-yl)methoxy)-3H-[1,2,3]triazolo[4,5-b]pyridin-5-amine]	≤ 60 nM
Nc1cc(OCc2ccc(C(F)(F)F)o2)c2nn[nH]c2n1 [Example 82, 7-((5-(Trifluoromethyl)furan-2-yl)methoxy)-3H-[1,2,3]triazolo[4,5-b]pyridin-5-amine]	≤ 60 nM
Nc1cc(OCC2CCN(c3ncccn3)CC2)c2nn[nH]c2n1 [Example 84, 7-((1-(Pyrimidin-2-yl)piperidin-4-yl)methoxy)-3H-[1,2,3]triazolo[4,5-b]pyridin-5-amine]	60 to 150 nM

More lines, now with the values ahead:

IC50	SMILES
≤ 60 nM	Nc1cc(OCc2ncc(Br)cc2F)c2nn[nH]c2n1 [Example 87, 7-((5-Bromo-3-fluoropyridin-2-yl)methoxy)-3H-[1,2,3]triazolo[4,5-b]pyridin-5-amine]
60 to 150 nM	Nc1cc(OCc2cc(Cl)ncc2F)c2nn[nH]c2n1 [Example 88, 7-((2-Chloro-5-fluoropyridin-4-yl)methoxy)-3H-[1,2,3]triazolo[4,5-b]pyridin-5-amine]
≤ 60 nM	Nc1cc(OCc2ncccc2F)c2nn[nH]c2n1 [Example 89, 7-((3-Fluoropyridin-2-yl)methoxy)-3H-[1,2,3]triazolo[4,5-b]pyridin-5-amine]
60 to 150 nM	Nc1cc(OCc2cnccc2Cl)c2nn[nH]c2n1 [Example 91, 7-((4-Chloropyridin-3-yl)methoxy)-3H-[1,2,3]triazolo[4,5-b]pyridin-5-amine]
60 to 150 nM	Nc1cc(OCc2ccc(Br)cn2)c2nn[nH]c2n1 [Example 92, 7-((5-Bromopyridin-2-yl)methoxy)-3H-[1,2,3]triazolo[4,5-b]pyridin-5-amine]
≤ 60 nM	Cn1nc(COc2cc(N)nc3[nH]nnc23)cc1Br [Example 93, 7-((5-Bromo-1-methyl-1H-pyrazol-3-yl)methoxy)-3H-[1,2,3]triazolo[4,5-b]pyridin-5-amine]
≤ 60 nM	Nc1cc(OCc2nc(Br)ccc2F)c2nn[nH]c2n1 [Example 95, 7-((6-Bromo-3-fluoropyridin-2-yl)methoxy)-3H-[1,2,3]triazolo[4,5-b]pyridin-5-amine]
≤ 60 nM	Cn1ccc(-c2ccc(F)c(COc3cc(N)nc4[nH]nnc34)n2)n1 [Example 96, 7-((3-Fluoro-6-(1-methyl-1H-pyrazol-3-yl)pyridin-2-yl)methoxy)-3H-[1,2,3]triazolo[4,5-b]pyridin-5-amine]
≤ 60 nM	Nc1cc(OCc2nc(-c3ccc(N4CCNCC4)nc3)ccc2F)c2nn[nH]c2n1 [Example 97, 7-((5-fluoro-6′-(piperazin-1-yl)-[2,3′-bipyridin]-6-yl)methoxy)-3H-[1,2,3] triazolo[4,5-b]pyridin-5-amine]
≤ 60 nM	Nc1cc(OCc2nc(-c3ccc(C4CC4)nc3)ccc2F)c2nn[nH]c2n1 [Example 98, 7-((6′-cyclopropyl-S-fluoro-[2,3′-bipyridin]-6-yl)methoxy)-3H-[1,2,3]triazolo[4,5-b] pyridin-5-amine]
≤ 60 nM	Nc1cc(OCc2ncc(-c3ccc(N4CCNCC4)nc3)cc2F)c2nn[nH]c2n1 [Example 99, 7-((5-fluoro-6′-(piperazin-1-yl)-[3,3′-bipyridin]-6-yl)methoxy)-3H-[1,2,3] triazolo[4,5-b]pyridin-5-amine]
≤ 60 nM	Nc1cc(OCc2ncc(-c3ccc(C4CC4)nc3)cc2F)c2nn[nH]c2n1 [Example 101, 7-((6′-cyclopropyl-5-fluoro-[3,3′-bipyridin]-6-yl)methoxy)-3H-[1,2,3]triazolo[4,5-b] pyridin-5-amine]
60 to 150 nM	Cn1nc(COc2cc(N)nc3[nH]nnc23)cc1-c1ccc(CO)nc1 [Example 103, (5-(3-(((5-amino-3H-[1,2,3]triazolo[4,5-b]pyridin-7-yl)oxy)methyl)-1-methyl-1H-pyrazol-5-yl)pyridin-2-yl)methanol]
≤ 60 nM	Cn1nc(COc2cc(N)nc3[nH]nnc23)cc1-c1ccc(N2CCNCC2)nc1 [Example 104, 7-((1-methyl-5-(6-(piperazin-1-yl)pyridin-3-yl)-1H-pyrazol-3-yl)methoxy)-3H-[1,2,3]triazolo[4,5-b]pyridin-5-amine]
≤ 60 nM	CN1CCN(c2ccc(-c3cc(COc4cc(N)nc5[nH]nnc45)nn3C)cn2)CC1 [Example 105, 7-((1-methyl-5-(6-(4-methylpiperazin-1-yl)pyridin-3-yl)-1H-pyrazol-3-yl)methoxy)-3H-[1,2,3]triazolo[4,5-b]pyridin-5-amine]
≤ 60 nM	CN1CCN(c2ccc(-c3cnc(COc4cc(N)nc5[nH]nnc45)c(F)c3)cn2)CC1 [Example 107, 7-((5-fluoro-6′-(4-methylpiperazin-1-yl)-[3,3′-bipyridin]-6-yl)methoxy)-3H-[1,2,3] triazolo[4,5-b]pyridin-5-amine]
60 to 150 nM	Nc1cc(OCc2ncc(-c3ccc(CO)nc3)cc2F)c2nn[nH]c2n1 [Example 108, (6′-(((5-amino-3H-[1,2,3]triazolo[4,5-b]pyridin-7-yl)oxy)methyl)-5′-fluoro-[3,3′-bipyridin]-6-yl)methanol]
≤ 60 nM	Nc1cc(OCc2cc(-c3ccc(N4CCNCC4)nc3)ncc2F)c2nn[nH]c2n1 [Example 110, 7-((5-fluoro-6′-(piperazin-1-yl)-[2,3′-bipyridin]-4-yl)methoxy)-3H-[1,2,3] triazolo[4,5-b]pyridin-5-amine]
60 to 150 nM	Nc1cc(OCc2cc(-c3ccc(CO)nc3)ncc2F)c2nn[nH]c2n1 [Example 111, (4-(((5-amino-3H-[1,2,3]triazolo[4,5-b]pyridin-7-yl)oxy)methyl)-5-fluoro-[2,3′-bipyridin]-6′-yl)methanol]

Same assay, conditions: MPO peroxidation assay IC50 values (binned), MPO peroxidation (Amplex Red), ranges given

IC50 [nM]	SMILES
60 to 150	Nc1cc(OCc2nn(-c3ccccc3)nc2CO)c2nn[nH]c2n1 [Example 64, (5-(((5-Amino-3H-[1,2,3]triazolo[4,5-b]pyridin-7-yl)oxy)methyl)-2-phenyl-2H-1,2,3-triazol-4-yl)methanol]
